The inhibition is the relative decrease from the control value, in per cent.

Assay [1] deals with T1, Myotonin-protein kinase (Homo sapiens) (UniProt Q09013).
T1 sequence (whole entry): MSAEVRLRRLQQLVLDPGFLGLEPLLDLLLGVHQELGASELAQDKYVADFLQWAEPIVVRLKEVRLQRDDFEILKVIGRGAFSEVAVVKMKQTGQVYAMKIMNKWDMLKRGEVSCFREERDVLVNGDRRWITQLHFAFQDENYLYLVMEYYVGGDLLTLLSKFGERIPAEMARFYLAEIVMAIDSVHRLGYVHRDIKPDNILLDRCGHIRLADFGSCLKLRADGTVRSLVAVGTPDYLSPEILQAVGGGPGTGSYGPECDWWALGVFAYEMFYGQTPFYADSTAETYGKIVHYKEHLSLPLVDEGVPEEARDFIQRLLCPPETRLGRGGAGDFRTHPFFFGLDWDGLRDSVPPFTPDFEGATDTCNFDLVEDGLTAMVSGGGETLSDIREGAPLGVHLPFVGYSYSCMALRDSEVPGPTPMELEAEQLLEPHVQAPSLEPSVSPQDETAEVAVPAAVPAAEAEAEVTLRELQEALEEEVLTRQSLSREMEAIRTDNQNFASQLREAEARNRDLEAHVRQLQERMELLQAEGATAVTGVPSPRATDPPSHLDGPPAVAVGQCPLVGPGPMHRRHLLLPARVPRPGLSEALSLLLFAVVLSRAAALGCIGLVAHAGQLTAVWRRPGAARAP
The assay is described as follows: DMPK1 SGC Tm panel (DSF). The note with it: for ΔTm: Compound concentration 10.0 uM.

Assay [2] has as its target Transcription initiation factor TFIID subunit 1 (Homo sapiens) (UniProt P21675). The assay is described as follows: TAF1 SGC Tm panel (DSF). The following applies: for ΔTm: Compound concentration 10.0 uM.
Assay [3] deals with Death-associated protein kinase 1 (Homo sapiens) (UniProt P53355). Nature of the assay: DAPK1 SGC Tm panel (DSF). The note with it: for ΔTm: Compound concentration 10.0 uM.
The target in assay [4] is Serine/threonine-protein kinase 26 (Homo sapiens) (UniProt Q9P289). The assay is described as follows: MST4 SGC Tm panel (DSF). The following applies: for ΔTm: Compound concentration 10.0 uM.
Serine/threonine-protein kinase 26 (Homo sapiens), sequence (Q9P289 2-416 limits assumed): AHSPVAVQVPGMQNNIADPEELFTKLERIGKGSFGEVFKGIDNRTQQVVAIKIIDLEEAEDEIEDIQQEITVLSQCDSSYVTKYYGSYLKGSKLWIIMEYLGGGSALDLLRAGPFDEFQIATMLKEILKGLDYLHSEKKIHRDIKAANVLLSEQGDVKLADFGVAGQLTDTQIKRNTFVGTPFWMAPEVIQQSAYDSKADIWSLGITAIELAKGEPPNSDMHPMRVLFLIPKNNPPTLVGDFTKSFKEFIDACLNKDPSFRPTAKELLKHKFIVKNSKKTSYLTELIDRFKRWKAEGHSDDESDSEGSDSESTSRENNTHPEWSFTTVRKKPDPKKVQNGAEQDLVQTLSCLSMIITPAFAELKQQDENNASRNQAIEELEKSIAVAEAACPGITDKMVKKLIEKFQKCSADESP
For assay [5], the target named is Ephrin type-A receptor 4 (Homo sapiens) (UniProt P54764). The assay is described as follows: EPHA4 SGC Tm panel (DSF). The following applies: for ΔTm: Compound concentration 10.0 uM.
Ephrin type-A receptor 4 (Homo sapiens), sequence (P54764 whole entry): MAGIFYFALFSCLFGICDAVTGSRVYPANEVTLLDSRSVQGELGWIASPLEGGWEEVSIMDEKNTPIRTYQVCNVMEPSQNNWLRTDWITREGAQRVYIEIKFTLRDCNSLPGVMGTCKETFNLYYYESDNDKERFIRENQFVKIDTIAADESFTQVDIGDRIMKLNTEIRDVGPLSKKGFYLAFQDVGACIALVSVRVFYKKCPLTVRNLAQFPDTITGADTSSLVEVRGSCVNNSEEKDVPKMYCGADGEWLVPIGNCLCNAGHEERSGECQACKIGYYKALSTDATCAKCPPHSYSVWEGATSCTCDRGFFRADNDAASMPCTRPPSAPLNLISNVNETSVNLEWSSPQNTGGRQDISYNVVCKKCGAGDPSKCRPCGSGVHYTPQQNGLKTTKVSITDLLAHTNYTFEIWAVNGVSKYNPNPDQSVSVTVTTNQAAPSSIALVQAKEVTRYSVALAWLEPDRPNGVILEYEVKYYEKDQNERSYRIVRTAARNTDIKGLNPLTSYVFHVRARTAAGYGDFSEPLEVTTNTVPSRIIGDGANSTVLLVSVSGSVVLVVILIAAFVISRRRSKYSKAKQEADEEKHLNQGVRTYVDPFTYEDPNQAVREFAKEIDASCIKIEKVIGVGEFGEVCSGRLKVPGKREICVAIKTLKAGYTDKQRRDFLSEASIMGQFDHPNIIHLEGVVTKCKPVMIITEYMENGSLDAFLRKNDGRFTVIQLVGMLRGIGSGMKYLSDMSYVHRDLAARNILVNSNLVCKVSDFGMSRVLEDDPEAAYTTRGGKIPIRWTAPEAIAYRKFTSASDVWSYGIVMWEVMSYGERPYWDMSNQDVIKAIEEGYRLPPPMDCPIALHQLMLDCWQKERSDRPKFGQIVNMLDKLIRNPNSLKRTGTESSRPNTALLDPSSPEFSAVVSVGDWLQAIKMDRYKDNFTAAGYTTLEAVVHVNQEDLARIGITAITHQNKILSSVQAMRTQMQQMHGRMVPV
For assay [6], the target named is Calcium/calmodulin-dependent protein kinase type II subunit delta (Homo sapiens) (UniProt Q13557). The assay is described as follows: CAMK2D SGC Tm panel (DSF). The note with it: for ΔTm: Compound concentration 10.0 uM.
Calcium/calmodulin-dependent protein kinase type II subunit delta (Homo sapiens), sequence (Q13557 whole entry): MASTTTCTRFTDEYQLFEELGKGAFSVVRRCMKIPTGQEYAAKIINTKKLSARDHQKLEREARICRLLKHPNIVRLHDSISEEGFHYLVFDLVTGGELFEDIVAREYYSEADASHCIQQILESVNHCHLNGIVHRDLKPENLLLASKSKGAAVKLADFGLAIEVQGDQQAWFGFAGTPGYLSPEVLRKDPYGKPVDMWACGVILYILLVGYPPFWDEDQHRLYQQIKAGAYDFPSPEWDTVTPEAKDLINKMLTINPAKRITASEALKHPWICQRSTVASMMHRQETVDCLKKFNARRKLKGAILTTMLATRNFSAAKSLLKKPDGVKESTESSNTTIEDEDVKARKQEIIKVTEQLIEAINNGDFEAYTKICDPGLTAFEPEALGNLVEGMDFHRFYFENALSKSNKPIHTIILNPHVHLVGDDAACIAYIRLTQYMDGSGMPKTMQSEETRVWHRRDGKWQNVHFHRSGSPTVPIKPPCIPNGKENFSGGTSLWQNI
In assay [7] the target is T2, Bone morphogenetic protein receptor type-2 (Homo sapiens) (UniProt Q13873).
T2 sequence (whole entry): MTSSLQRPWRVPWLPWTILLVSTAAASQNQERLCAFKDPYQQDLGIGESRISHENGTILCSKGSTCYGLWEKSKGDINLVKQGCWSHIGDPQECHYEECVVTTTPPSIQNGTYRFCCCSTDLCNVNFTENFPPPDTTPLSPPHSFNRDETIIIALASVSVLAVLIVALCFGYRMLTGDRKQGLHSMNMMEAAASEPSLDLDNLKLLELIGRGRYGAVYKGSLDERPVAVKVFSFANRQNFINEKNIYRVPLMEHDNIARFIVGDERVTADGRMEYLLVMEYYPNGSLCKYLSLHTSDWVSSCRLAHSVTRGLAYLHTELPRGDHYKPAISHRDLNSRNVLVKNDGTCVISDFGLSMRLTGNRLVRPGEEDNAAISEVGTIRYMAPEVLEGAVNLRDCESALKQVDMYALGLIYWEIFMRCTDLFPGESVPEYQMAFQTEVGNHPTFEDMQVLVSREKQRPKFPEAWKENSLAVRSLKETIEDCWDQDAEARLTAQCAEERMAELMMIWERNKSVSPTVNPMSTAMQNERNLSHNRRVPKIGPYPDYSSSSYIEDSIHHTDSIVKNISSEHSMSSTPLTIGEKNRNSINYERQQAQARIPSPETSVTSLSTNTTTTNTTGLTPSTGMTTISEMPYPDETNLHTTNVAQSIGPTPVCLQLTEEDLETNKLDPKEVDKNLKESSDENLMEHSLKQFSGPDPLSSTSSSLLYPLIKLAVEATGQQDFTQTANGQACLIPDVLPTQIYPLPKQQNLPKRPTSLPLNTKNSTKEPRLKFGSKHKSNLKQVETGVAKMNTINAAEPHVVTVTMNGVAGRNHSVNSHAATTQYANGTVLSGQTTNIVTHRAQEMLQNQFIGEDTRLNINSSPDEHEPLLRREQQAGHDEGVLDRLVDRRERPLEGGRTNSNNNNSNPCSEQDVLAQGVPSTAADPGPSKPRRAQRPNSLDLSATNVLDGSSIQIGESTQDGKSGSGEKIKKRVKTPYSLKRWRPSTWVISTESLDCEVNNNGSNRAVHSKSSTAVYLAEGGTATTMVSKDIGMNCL
Nature of the assay: BMPR2 SGC Tm panel (DSF). The note with it: for ΔTm: Compound concentration 10.0 uM.

The target in assay [8] is T3, Dual specificity mitogen-activated protein kinase kinase 7 (Homo sapiens) (UniProt O14733).
T3 sequence (whole entry): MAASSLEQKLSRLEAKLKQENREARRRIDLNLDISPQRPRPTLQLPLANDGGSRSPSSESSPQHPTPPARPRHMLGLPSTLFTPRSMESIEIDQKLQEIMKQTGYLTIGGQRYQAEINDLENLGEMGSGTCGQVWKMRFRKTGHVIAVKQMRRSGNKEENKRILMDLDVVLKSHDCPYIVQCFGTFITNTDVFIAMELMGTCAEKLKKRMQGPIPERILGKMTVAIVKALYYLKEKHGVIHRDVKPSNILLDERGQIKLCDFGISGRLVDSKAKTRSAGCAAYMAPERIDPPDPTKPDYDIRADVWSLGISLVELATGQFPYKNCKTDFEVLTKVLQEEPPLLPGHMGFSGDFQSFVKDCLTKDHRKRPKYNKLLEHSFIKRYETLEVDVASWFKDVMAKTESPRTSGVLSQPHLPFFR
The assay is described as follows: MAP2K7 SGC Tm panel (DSF). The note with it: for ΔTm: Compound concentration 10.0 uM.

Assay [9] deals with D(2) dopamine receptor (Homo sapiens) (UniProt P14416). The note with it: Compound concentration 10.0 uM.
D(2) dopamine receptor (Homo sapiens), sequence (P14416 whole entry): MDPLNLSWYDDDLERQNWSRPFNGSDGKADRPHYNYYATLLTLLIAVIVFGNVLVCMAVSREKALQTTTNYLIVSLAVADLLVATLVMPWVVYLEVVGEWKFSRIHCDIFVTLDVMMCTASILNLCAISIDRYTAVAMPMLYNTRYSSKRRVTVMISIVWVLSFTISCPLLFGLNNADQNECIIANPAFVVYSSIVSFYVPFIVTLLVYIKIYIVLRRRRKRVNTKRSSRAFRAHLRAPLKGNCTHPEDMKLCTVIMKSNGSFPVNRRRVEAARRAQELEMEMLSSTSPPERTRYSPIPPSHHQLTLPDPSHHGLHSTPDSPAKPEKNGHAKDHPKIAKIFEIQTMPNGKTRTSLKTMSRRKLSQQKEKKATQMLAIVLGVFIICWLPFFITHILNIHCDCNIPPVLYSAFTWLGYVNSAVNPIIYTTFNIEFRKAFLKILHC
In assay [10] the target is Death-associated protein kinase 3 (Homo sapiens) (UniProt O43293). The assay is described as follows: DAPK3 SGC Tm panel (DSF). The following applies: for ΔTm: Compound concentration 10.0 uM.
Death-associated protein kinase 3 (Homo sapiens), sequence (O43293 whole entry, looked up): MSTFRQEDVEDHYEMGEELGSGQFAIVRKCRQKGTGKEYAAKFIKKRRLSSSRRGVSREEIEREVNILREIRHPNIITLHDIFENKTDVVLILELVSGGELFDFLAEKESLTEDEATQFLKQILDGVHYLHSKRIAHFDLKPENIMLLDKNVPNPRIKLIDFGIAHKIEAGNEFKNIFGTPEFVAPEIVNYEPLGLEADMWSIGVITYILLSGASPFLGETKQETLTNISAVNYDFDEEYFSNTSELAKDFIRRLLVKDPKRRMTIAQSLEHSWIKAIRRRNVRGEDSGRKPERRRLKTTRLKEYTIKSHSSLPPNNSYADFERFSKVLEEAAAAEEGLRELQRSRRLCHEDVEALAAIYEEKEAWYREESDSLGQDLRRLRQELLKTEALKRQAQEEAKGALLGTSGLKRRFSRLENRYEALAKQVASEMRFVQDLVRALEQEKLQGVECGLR

Transcription initiation factor TFIID subunit 1 (Homo sapiens), sequence (P21675 whole entry): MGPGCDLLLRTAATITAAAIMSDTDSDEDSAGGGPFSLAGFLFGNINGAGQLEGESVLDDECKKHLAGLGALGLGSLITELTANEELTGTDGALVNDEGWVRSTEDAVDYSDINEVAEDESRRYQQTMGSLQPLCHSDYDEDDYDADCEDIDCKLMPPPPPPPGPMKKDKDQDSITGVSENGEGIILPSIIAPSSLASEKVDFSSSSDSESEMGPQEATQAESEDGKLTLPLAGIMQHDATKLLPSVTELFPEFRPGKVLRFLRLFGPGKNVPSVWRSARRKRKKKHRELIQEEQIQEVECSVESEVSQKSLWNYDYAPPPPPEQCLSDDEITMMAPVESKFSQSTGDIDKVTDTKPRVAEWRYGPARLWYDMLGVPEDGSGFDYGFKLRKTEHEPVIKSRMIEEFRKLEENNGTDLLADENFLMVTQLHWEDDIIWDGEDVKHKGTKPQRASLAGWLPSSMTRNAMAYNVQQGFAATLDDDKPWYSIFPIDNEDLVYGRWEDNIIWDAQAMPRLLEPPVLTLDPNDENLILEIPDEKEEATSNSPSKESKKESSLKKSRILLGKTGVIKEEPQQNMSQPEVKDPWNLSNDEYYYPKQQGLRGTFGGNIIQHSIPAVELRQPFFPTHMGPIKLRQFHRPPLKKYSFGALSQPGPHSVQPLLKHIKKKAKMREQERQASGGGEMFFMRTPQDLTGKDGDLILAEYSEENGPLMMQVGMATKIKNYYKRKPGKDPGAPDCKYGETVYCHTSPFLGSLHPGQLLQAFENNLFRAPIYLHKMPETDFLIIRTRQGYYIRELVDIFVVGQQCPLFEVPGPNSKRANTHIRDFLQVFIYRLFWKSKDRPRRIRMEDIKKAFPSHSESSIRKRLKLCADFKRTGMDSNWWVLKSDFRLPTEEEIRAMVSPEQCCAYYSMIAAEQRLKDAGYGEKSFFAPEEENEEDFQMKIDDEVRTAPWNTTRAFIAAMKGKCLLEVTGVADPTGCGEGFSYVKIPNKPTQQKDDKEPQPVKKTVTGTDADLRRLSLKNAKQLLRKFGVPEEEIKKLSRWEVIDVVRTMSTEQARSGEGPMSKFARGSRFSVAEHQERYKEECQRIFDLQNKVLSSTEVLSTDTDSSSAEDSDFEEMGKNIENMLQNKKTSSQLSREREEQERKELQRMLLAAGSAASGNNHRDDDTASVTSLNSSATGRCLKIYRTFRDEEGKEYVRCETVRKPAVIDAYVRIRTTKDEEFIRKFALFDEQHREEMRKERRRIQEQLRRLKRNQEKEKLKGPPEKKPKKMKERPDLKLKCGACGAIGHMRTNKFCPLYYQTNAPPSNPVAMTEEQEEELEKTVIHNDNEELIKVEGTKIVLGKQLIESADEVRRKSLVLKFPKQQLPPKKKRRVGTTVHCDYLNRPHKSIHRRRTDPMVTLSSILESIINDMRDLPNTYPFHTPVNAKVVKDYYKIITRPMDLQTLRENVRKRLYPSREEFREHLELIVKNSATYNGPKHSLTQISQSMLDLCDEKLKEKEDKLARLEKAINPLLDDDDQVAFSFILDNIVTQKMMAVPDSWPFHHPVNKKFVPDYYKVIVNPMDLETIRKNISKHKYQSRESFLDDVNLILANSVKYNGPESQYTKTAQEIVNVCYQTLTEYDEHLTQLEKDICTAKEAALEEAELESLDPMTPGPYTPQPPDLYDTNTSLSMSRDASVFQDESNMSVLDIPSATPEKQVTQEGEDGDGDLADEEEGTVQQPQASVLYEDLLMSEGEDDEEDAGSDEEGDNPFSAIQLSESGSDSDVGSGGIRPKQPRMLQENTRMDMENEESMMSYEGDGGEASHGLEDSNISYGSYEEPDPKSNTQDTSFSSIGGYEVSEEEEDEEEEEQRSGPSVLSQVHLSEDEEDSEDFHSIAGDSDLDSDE

With `CCC[C@@H]1CNCc2c1[nH]c(=O)c(C#N)c2N1CCC2(CC1)CC2`, the delta Tm Staurosporine positive control worked out at 9.38 in assay [1]; 0.516 in [2]; 9.84 in [3]; 6.5 in assay [4]; 6.68 in assay [5]; 18.2 in assay [6]. Besides, the figures for the delta Tm Staurosporine positive control in [7], in assay [8] and in assay [10] were 3.02, 7.05 and 16.6, respectively. The ΔTm in [1] was -0.138; in [2] it was 0.967; in assay [3], -0.225; in assay [4], -1.81; in assay [5], -0.295; in [6] it was -0.155. Besides, the results for the ΔTm in [7], in assay [8] and in assay [10] were 0.0735, -1.17 and 0.29, respectively. For the same compound, in [9], the inhibition was -4.21%.

With `CCC[C@H]1CNCc2c1[nH]c(=O)c(C#N)c2N1CCC2(CC1)CC2`, the delta Tm Staurosporine positive control stood at 9.38 in assay [1]; 0.516 in assay [2]; 9.84 in assay [3]; 6.5 in [4]; 6.68 in [5]; 18.2 in assay [6]. In addition, the delta Tm Staurosporine positive control in [7] is 3.02; in assay [8], 7.05; in assay [10], 16.6. The ΔTm is -0.0275 in assay [1]; 1.56 in assay [2]; 0.2 in assay [3]; -1.58 in [4]; -0.324 in assay [5]; 0.118 in assay [6]. In addition, the ΔTm is 0.146 in [7], -1.17 in assay [8] and 0.222 in assay [10]. In addition, in [9], the inhibition was 3.01%.
